Test results as given in the supplement of paper PMC13380429.

Key:
Settings in all cases: 72 h
Caco-2 [1] = assay: cell viability relative to DMSO; higher = less toxic
Calu-3 [2] = assay: as above
HepG2 [3] = assay: as above
U2OS [4] = assay: as above
Vero E6 [5] = assay: as above
Caco-2 [6] = assay: relative viability EC50 (midpoint between 100% and the lowest measured viability); higher = less toxic
Calu-3 [7] = assay: as above
HepG2 [8] = assay: as above
U2OS [9] = assay: as above
Vero E6 [10] = assay: as above
Caco-2 [11] = assay: drug sensitivity score (DSS) for viability; higher = more toxic; extreme values may be limits of the assay
Calu-3 [12] = assay: as above
HepG2 [13] = assay: as above
U2OS [14] = assay: as above
Vero E6 [15] = assay: as above

| Structure (SMILES) | cell viability (Caco-2 [1]; 1 nM) [%] | cell viability (Caco-2 [1]; 10 nM) [%] | cell viability (Caco-2 [1]; 100 nM) [%] | cell viability (Caco-2 [1]; 1000 nM) [%] | cell viability (Caco-2 [1]; 10000 nM) [%] | cell viability (Calu-3 [2]; 1 nM) [%] | cell viability (Calu-3 [2]; 10 nM) [%] | cell viability (Calu-3 [2]; 100 nM) [%] | cell viability (Calu-3 [2]; 1000 nM) [%] | cell viability (Calu-3 [2]; 10000 nM) [%] | cell viability (HepG2 [3]; 1 nM) [%] | cell viability (HepG2 [3]; 10 nM) [%] | cell viability (HepG2 [3]; 100 nM) [%] | cell viability (HepG2 [3]; 1000 nM) [%] | cell viability (HepG2 [3]; 10000 nM) [%] | cell viability (U2OS [4]; 1 nM) [%] | cell viability (U2OS [4]; 10 nM) [%] | cell viability (U2OS [4]; 100 nM) [%] | cell viability (U2OS [4]; 1000 nM) [%] | cell viability (U2OS [4]; 10000 nM) [%] | cell viability (Vero E6 [5]; 1 nM) [%] | cell viability (Vero E6 [5]; 10 nM) [%] | cell viability (Vero E6 [5]; 100 nM) [%] | cell viability (Vero E6 [5]; 1000 nM) [%] | cell viability (Vero E6 [5]; 10000 nM) [%] | relative viability EC50 (Caco-2 [6]) [µM] | relative viability EC50 (Calu-3 [7]) [µM] | relative viability EC50 (HepG2 [8]) [µM] | relative viability EC50 (U2OS [9]) [µM] | relative viability EC50 (Vero E6 [10]) [µM] | drug sensitivity score (Caco-2 [11]) | drug sensitivity score (Calu-3 [12]) | drug sensitivity score (HepG2 [13]) | drug sensitivity score (U2OS [14]) | drug sensitivity score (Vero E6 [15]) |
| --- | --- | --- | --- | --- | --- | --- | --- | --- | --- | --- | --- | --- | --- | --- | --- | --- | --- | --- | --- | --- | --- | --- | --- | --- | --- | --- | --- | --- | --- | --- | --- | --- | --- | --- | --- |
| CC(=O)Nc1cccc2c1c(Sc1ccc(Cl)cc1)c(C)n2CC(=O)O [AZD1981] | 102 | 105 | 91.6 | 102 | 103 | 102 | 96 | 89.7 | 94.3 | 96.2 | 100 | 103 | 105 | 99.8 | 97.9 | 94.6 | 102 | 94.3 | 101 | 97.6 | 98.6 | 98.1 | 97.4 | 97.4 | 94.4 | > 10 | > 10 | > 10 | > 10 | > 10 | 0 | 0 | 0 | 0 | 0 |
| C[C@@H]1Cc2c([nH]c3ccccc23)[C@@H](c2c(F)cc(/C=C/C(=O)O)cc2F)N1CC(C)(C)F [AZD9496] | 94.2 | 104 | 99.6 | 94.7 | 93.5 | 97.1 | 91.7 | 90.8 | 93.6 | 105 | 103 | 90 | 104 | 98.8 | 97.5 | 98.8 | 100 | 99 | 102 | 98.9 | 102 | 100 | 104 | 101 | 91.7 | > 10 | > 10 | > 10 | > 10 | > 10 | 0 | 0 | 0 | 0 | 0 |
| CCOC(=O)c1c[nH]cn1 [C-751] | 88.6 | 91.6 | 96.4 | 98.3 | 90.4 | 100 | 97.2 | 90.3 | 92.9 | 104 | 104 | 99.6 | 95.6 | 93.1 | 109 | 100 | 100 | 94.6 | 102 | 93 | 99.5 | 96.7 | 99.6 | 92.6 | 100 | > 10 | > 10 | > 10 | > 10 | > 10 | 0 | 0 | 0 | 0 | 0 |
